Experimental data as given in publication PMC10991509, “A phase I study of ATR inhibitor gartisertib (M4344) as a single agent and in combination with carboplatin in patients with advanced solid tumours” (British Journal of Cancer, 2024).
pIC50: −log10 of the molar value.

Tests used:
UGT1A1 = UGT1A1 (Canis lupus familiaris, UniProt A0A8I3S535); test: UGT1A1 inhibition in dog liver microsomes
[1] = tested on: variant allele frequency of somatic alterations in ctDNA; test: Molecular response: variant allele frequency in ctDNA; format: in vivo, human; settings: for patients with reduced variant allele frequency of the selected biomarkers: cohort C, 250 mg QD
From the text: Exploratory objectives were to assess ATR inhibition and DNA damage by measuring phosphorylation of the Ser-139 residue of the histone variant H2AX (ɣ-H2AX) post-treatment in peripheral blood mononuclear cells (cohorts A2 and C), describe the mutational landscape and its relationship to BOR in patients with selected biomarkers (cohort C) and to determine changes in allele frequencies in mutations of interest and their association with clinical benefit (molecular response; cohorts A2 and C). Further details on the definitions of LOF mutations and methods of biomarker collection are described in the Supplementary Materials.
Use of ATRX/DAXX mutations as proxies for ALT-positive tumors enabled use of a single next-generation sequencing test for all biomarkers in this study. Loss of function mutations were defined as loss of the gene locus, a mutation defined as pathogenic in the ClinVar database or a mutation in one of the following categories: splice_acceptor_variant, splice_donor_variant, stop_gained, frameshift_variant, stop_lost or start_lost. Archival formalin-fixed paraffin-embedded tumor biopsies and serial blood samples collected in two 10 mL Streck tubes (Streck) were analyzed for the presence of genetic alterations in tumor DNA and circulating tumor DNA (ctDNA) with the FoundationOne® CDx NGS assay (Foundation Medicine, Cambridge, Massachusetts, US, FoundationOne®CDx Technical Information. https://www.accessdata.fda.gov/cdrh_docs/pdf17/P170019S006C.pdf) and Guardant Health OMNI assay (Guardant, Palo Alto, CA, US. Technical Information https://www.accessdata.fda.gov/cdrh_docs/pdf20/P200010C.pdf), respectively.
Molecular responses were measured in ctDNA as best-on-treatment change in variant allele frequency of somatic alterations with baseline value ≥0.3%.

[2] = tested on: patients with advanced solid tumours; test: Phase I safety and tolerability (TEAEs, DLTs, MTD/RP2D); format: in vivo
From the text: This phase I, multicenter, multicohort, open-label, first-in-human study (NCT02278250) assessed the safety, tolerability, pharmacokinetics (PK) and antitumour activity of orally administered gartisertib alone or in combination with intravenous carboplatin in patients with advanced solid tumours for whom no standard therapy was available.
The primary objectives of cohorts A and A2 were to evaluate safety and tolerability and determine the maximum tolerated dose (MTD) and/or recommended phase II dose (RP2D) of escalating doses of gartisertib monotherapy. In cohort B1, the primary objective was to determine the safety and tolerability as well as the MTD and/or RP2D of escalating doses of gartisertib in combination with carboplatin. The primary endpoints for these three study cohorts were safety parameters (AEs, clinical laboratory values, vital signs, and electrocardiogram [ECG] assessment) as well as the MTD and/or RP2D. The Supplementary Materials provide further details regarding the safety analysis, including determination of MTD, as well as the definitions of dose-limiting toxicities (DLTs; Supplementary Table S1). Please note that in this study increased blood bilirubin was defined as a laboratory finding whereas hyperbilirubinemia was a clinical diagnosis based on clinical symptoms.
Gartisertib safety was determined via reporting, recording, and analysis of Baseline Medical Conditions, AEs, physical examination data including vital signs, electrocardiograms and laboratory tests. Medical history and physical examination data were collected during the study. Any potential AE was reported and comprehensively evaluated throughout the study. AE severity was assessed according to the National Cancer Institute – Common Terminology Criteria for Adverse Events (NCI–CTCAE) version 4.0 (cohorts A and B1) or 5.0 (cohorts A2 and C). Any clinical AE with a grade of 4 or 5 was considered to be a serious AE (SAE). A laboratory AE of grade 4 was considered serious if it met certain SAE criteria. […] Important medical events that may not result in death, be life-threatening, or require hospitalization were considered to be SAEs when, based upon appropriate medical judgment, they may jeopardize the patient or may require medical or surgical intervention to prevent one of the outcomes listed above.
Patients were monitored throughout treatment cycles for DLTs. DLTs were defined using the NCI CTCAE (cohorts A and B1: version 4.0; cohort A2: version 5.0) and were defined as being related or possibly related to treatment.
Cohorts A, A2, and B1: With respect to determination of the MTD, the next dose level to be investigated was decided at a Dose Escalation Meeting and was based on the available safety data from the previous cohort. The MTD of gartisertib was primarily determined by DLTs that occurred up to and including the end of the DLT period. Please see Table S1 for definitions of DLTs. In cohorts A and B1, the gartisertib MTD was determined according to the NCI-CTCAE version 4.0 and in cohorts A2 and […], the gartisertib MTD was defined according to the NCI-CTCAE version 5.0. If ≥2 out of up to six participants at the same dose level have a DLT, the gartisertib MTD was determined as the dose level below or at an intermediate dose level. The exact dose was determined following a discussion regarding all the relevant toxicity, including DLTs that occur in prior cohorts beyond the end of the DLT period. An RP2D was determined for each applicable cohort of the study; however, it may not be higher than the MTD.

Sequence of UGT1A1 (A0A8I3S535 entry or part of it): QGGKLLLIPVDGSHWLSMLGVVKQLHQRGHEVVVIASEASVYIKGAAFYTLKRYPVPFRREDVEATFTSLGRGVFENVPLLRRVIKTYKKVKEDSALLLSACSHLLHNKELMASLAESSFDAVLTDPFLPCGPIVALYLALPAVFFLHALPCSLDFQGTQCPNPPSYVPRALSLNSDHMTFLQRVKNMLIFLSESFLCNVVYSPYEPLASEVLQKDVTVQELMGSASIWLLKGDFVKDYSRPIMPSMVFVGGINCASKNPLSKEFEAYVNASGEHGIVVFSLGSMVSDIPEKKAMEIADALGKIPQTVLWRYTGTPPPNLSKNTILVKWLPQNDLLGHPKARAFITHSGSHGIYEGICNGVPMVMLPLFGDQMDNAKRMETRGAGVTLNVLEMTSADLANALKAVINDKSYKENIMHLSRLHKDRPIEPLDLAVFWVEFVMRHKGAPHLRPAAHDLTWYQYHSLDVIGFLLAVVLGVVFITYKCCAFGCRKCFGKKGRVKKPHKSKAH

Nc1nn2cc(F)cnc2c1C(=O)Nc1cncc(F)c1N1CCC(C(=O)N2CCN(C3COC3)CC2)CC1 [gartisertib, Gartisertib]
pIC50 (UGT1A1): < 4.30
patients with TP53-reduced variant allele frequency ([1]; cohort A2, 100 mg BID): 0/2
patients with TP53-reduced variant allele frequency ([1]; cohort A2, 150 mg QD): 1/2
patients with TP53-reduced variant allele frequency ([1]; cohort A2, 250 mg QD (RP2D)): all six
patients with TP53-reduced variant allele frequency ([1]; cohort A2, 350 mg QD): 0/4
patients with TP53-reduced variant allele frequency ([1]; cohort A2, patients achieving SD as best response): 4/5
patients with TP53-reduced variant allele frequency ([1]; cohort A2, patients with PD): 2/6
patients with reduced variant allele frequency of the selected biomarkers ([1]; SD as best response): all four
patients with reduced variant allele frequency of the selected biomarkers ([1]; patients with PD): 2/5
TEAE Constipation, Grade 3/4 ([2]; human, in vivo): 0 (0.0) n (%)
TEAE Decreased appetite, Grade 3/4 ([2]; human, in vivo): 0 (0.0) n (%)
TEAE Diarrhoea, Grade 3/4 ([2]; human, in vivo): 0 (0.0) n (%)
TEAE Disease progression, Grade 3/4 ([2]; human, in vivo): 0 (0.0) n (%)
TEAE Disease progression, any grade ([2]; human, in vivo): 0 (0.0) n (%)
TEAE Dyspnoea, Grade 3/4 ([2]; human, in vivo): 0 (0.0) n (%)
TEAE Headache, Grade 3/4 ([2]; human, in vivo): 0 (0.0) n (%)
TEAE Hypokalaemia, Grade 3/4 ([2]; human, in vivo): 0 (0.0) n (%)
TEAE Hypokalaemia, any grade ([2]; human, in vivo): 0 (0.0) n (%)
TEAE Hypomagnesaemia, Grade 3/4 ([2]; human, in vivo): 0 (0.0) n (%)
TEAE Hypomagnesaemia, any grade ([2]; human, in vivo): 0 (0.0) n (%)
TEAE Jaundice, Grade 3/4 ([2]; human, in vivo): 0 (0.0) n (%)
TEAE Jaundice, any grade ([2]; human, in vivo): 0 (0.0) n (%)
TEAE Neutropenia, Grade 3/4 ([2]; human, in vivo): 0 (0.0) n (%)
TEAE Peripheral oedema, Grade 3/4 ([2]; human, in vivo): 0 (0.0) n (%)
TEAE Peripheral oedema, any grade ([2]; human, in vivo): 0 (0.0) n (%)
TEAE Thrombocytopenia, Grade 3/4 ([2]; human, in vivo): 0 (0.0) n (%)
TEAE Thrombocytopenia, any grade ([2]; human, in vivo): 0 (0.0) n (%)
TEAE anaemia ([2]; human, in vivo): 61.5%
TEAE fatigue ([2]; human, in vivo): 47.6%
TEAE increased blood bilirubin ([2]; human, in vivo): 61.5%
TEAE nausea ([2]; human, in vivo): 66.7%
abdominal pain leading to gartisertib discontinuation ([2]; human, in vivo): 7.7%
hepatic failure leading to gartisertib discontinuation ([2]; human, in vivo): 7.7%
increased ALT leading to gartisertib discontinuation ([2]; human, in vivo): 7.7%
increased blood bilirubin leading to gartisertib discontinuation ([2]; human, in vivo): 11.9%
nausea leading to gartisertib discontinuation ([2]; human, in vivo): 7.1%
patients experiencing a gartisertib-related TEAE ([2]; human, in vivo): ≥ 92.3%
patients who experienced at least one serious TEAE ([2]; human, in vivo): ≥ 50%
patients with grade 3 or 4 changes in laboratory parameters ([2]; human, in vivo): ≤ 20%
recommended phase II dose (RP2D) ([2]; human, in vivo): 250 mg QD
serious TEAE related to gartisertib ([2]; human, in vivo): 19.0-37.5%
DLTs at QD doses subsequently investigated ([2]; in vivo): no additional DLTs observed
changes in ECG parameters ([2]; in vivo): no clinically relevant changes
changes in vital signs ([2]; in vivo): no clinically relevant changes
gartisertib dose reduction due to a treatment-related TEAE ([2]; in vivo): eight
patients with ≥1 DLT ([2]; in vivo): five
tolerability of gartisertib 1200 mg twice weekly ([2]; in vivo): not tolerated
deaths considered related to gartisertib or carboplatin ([2]; six deaths reported across all cohorts): none
